Source: ChEMBL document CHEMBL3044968, “N-palmitoylethanolamide derivatives: synthesis and studies on anticonvulsant and antidepressant activities” (Med Chem Res, 2011)
The source made the active and inactive calls. The rule behind the calls is not given here.

Columns and labels:
Mus musculus [1] = experiment: Anticonvulsant activity in Mus musculus Kunming (mouse) assessed as protection against maximal electroshock-induced seizure at 100 mg/kg, ip measured after 30 min; format: functional, organism-based; design: dose 100 mg/kg
Mus musculus [2] = experiment: Anticonvulsant activity in Mus musculus Kunming (mouse) assessed as protection against maximal electroshock-induced seizure at 100 mg/kg, ip measured after 4 hr; format: functional, organism-based; design: dose 100 mg/kg
Mus musculus [3] = experiment: Anticonvulsant activity in Mus musculus Kunming (mouse) assessed as protection against maximal electroshock-induced seizure at 300 mg/kg, ip measured after 4 hr; format: functional, organism-based; design: dose 300 mg/kg
Mus musculus [4] = experiment: Neurotoxicity in Mus musculus Kunming (mouse) at 30 mg/kg, ip measured after 30 min by rotarod test; format: toxicity, organism-based; design: dose 30 mg/kg, route intraperitoneal; conditions: in vivo, 0.5 h
Mus musculus [5] = experiment: Neurotoxicity in Mus musculus Kunming (mouse) at 100 mg/kg, ip measured after 4 hr by rotarod test; format: toxicity, organism-based; design: dose 100 mg/kg, route intraperitoneal; conditions: in vivo
Mus musculus [6] = experiment: Neurotoxicity in Mus musculus Kunming (mouse) at 30 mg/kg, ip measured after 4 hr by rotarod test; format: toxicity, organism-based; design: dose 30 mg/kg, route intraperitoneal; conditions: in vivo
Mus musculus [7] = experiment: Anticonvulsant activity in Mus musculus Kunming (mouse) assessed as protection against maximal electroshock-induced seizure at 30 mg/kg, ip measured after 30 min; format: functional, organism-based; design: dose 30 mg/kg
Mus musculus [8] = experiment: Antidepressant activity in Mus musculus Kunming (mouse) assessed as reduction in duration of immobility at 10 mg/kg, ip measured after 30 min by forced swim test; format: functional; conditions: 0.5 h, route intraperitoneal
Mus musculus [9] = experiment: Anticonvulsant activity in Mus musculus Kunming (mouse) assessed as protection against maximal electroshock-induced seizure at 300 mg/kg, ip measured after 30 min; format: functional, organism-based; design: dose 300 mg/kg
Mus musculus [10] = experiment: Neurotoxicity in Mus musculus Kunming (mouse) at 300 mg/kg, ip measured after 30 min by rotarod test; format: toxicity, organism-based; design: dose 300 mg/kg, route intraperitoneal; conditions: in vivo, 0.5 h
Mus musculus [11] = experiment: Neurotoxicity in Mus musculus Kunming (mouse) at 300 mg/kg, ip measured after 4 hr by rotarod test; format: toxicity, organism-based; design: dose 300 mg/kg, route intraperitoneal; conditions: in vivo
Mus musculus [12] = experiment: Anticonvulsant activity in Mus musculus Kunming (mouse) assessed as protection against maximal electroshock-induced seizure at 30 mg/kg, ip measured after 4 hr; format: functional, organism-based; design: dose 30 mg/kg
Mus musculus [13] = experiment: Neurotoxicity in Mus musculus Kunming (mouse) at 100 mg/kg, ip measured after 30 min by rotarod test; format: toxicity, organism-based; design: dose 100 mg/kg, route intraperitoneal; conditions: in vivo, 0.5 h

SMILES | Activity (Mus musculus [1]) | Activity (Mus musculus [2]) | Activity (Mus musculus [3]) | Activity (Mus musculus [4]) | Activity (Mus musculus [5]) | Activity (Mus musculus [6]) | Activity (Mus musculus [7]) | inhibition in vivo at 10 mg/kg (Mus musculus [8]) [%] | Activity (Mus musculus [9]) | Activity (Mus musculus [10]) | Activity (Mus musculus [11]) | Activity (Mus musculus [12]) | Activity (Mus musculus [13])
CCCCCCCCCCCCCCCCCC(=O)NCCCO | inactive | inactive | inactive | Non-toxic | Non-toxic | Non-toxic | inactive | 14.1 | inactive | Non-toxic | Non-toxic | inactive | Non-toxic
CCCCCCCCCCCCCCCCCC(=O)N(CC)CC [N,N-DIETHYLSTEARAMIDE] | inactive | inactive | inactive | Non-toxic | Non-toxic | Non-toxic | inactive | 18.4 | inactive | Non-toxic | Non-toxic | inactive | Non-toxic
O=C(/C=C/c1ccccc1)NCCCO | inactive | inactive | inactive | Non-toxic | Non-toxic | Non-toxic | inactive | 23.4 |  | Toxic | Non-toxic | inactive | Non-toxic
CCN(CC)C(=O)/C=C/c1ccccc1 [N,N-DIETHYLCINNAMAMIDE] |  |  |  | Non-toxic | Non-toxic | Non-toxic | inactive | 18.2 | Active | Toxic | Non-toxic | inactive | Non-toxic
O=C(/C=C/c1ccccc1)NCCO [IDROCILAMIDE] | Active | inactive | inactive | Non-toxic | Non-toxic | Non-toxic | Active | 25.9 | Active | Toxic | Non-toxic | inactive | Non-toxic
CCCCCCCCCCCCCCCC(=O)NCCCO [N-(3-HYDROXYPROPYL)PALMITAMIDE] | inactive | inactive | inactive | Non-toxic | Non-toxic | Non-toxic | inactive | 22.2 | inactive | Non-toxic | Non-toxic | inactive | Non-toxic
CN(CCO)C(=O)/C=C/c1ccccc1 |  | inactive |  | Non-toxic | Non-toxic | Non-toxic | inactive | 8.41 | Active | Toxic | Non-toxic | inactive | Non-toxic
CCCCCCCCCCCCCCCC(=O)NCCO [PALMIDROL] | Active | inactive | inactive | Non-toxic | Non-toxic | Non-toxic |  | 6.25 | Active | Non-toxic | Non-toxic | inactive | Non-toxic
CNCCC(Oc1ccc(C(F)(F)F)cc1)c1ccccc1 (stereo not given) [FLUOXETINE] |  |  |  |  |  |  |  | 39.4 |  |  |  |  | 
CCCCCCCCCCCCCCCC(=O)N(CCO)CCO | inactive | inactive | inactive | Non-toxic | Non-toxic | Non-toxic | inactive | 26.3 | inactive | Non-toxic | Non-toxic | inactive | Non-toxic
CCCCCCCCCCCCCCCCCC(=O)N(C)CCO | inactive | inactive | inactive | Non-toxic | Non-toxic | Non-toxic | inactive | 22 | inactive | Non-toxic | Non-toxic | inactive | Non-toxic
CN(C)C(=O)/C=C/c1ccccc1 [N,N-DIMETHYLCINNAMAMIDE] |  |  |  | Non-toxic | Non-toxic | Non-toxic | inactive | 20 | Active | Toxic | Non-toxic | inactive | Non-toxic
CCCCCCCCCCCCCCCCCC(=O)NCCO [N-(2-HYDROXYETHYL)STEARAMIDE] | Active | inactive | inactive | Non-toxic | Non-toxic | Non-toxic | Active | 5.65 | Active | Non-toxic | Non-toxic | inactive | Non-toxic
CCCCCCCCCCCCCCCC(=O)N(CC)CC [HEXADECANOIC ACID DIETHYLAMIDE] | inactive | inactive | inactive | Non-toxic | Non-toxic | Non-toxic | inactive | 17.3 | inactive | Non-toxic | Non-toxic | inactive | Non-toxic
